The text below walks through data of PubChem BioAssay (NCI).

Test systems include A498 renal; NCI-H460 lung; HCT-15 colon; HT29 colon; K-562 leukemia; OVCAR-3 ovarian; HCT-116 colon; RPMI-8226 leukemia; RXF 393 renal; OVCAR-5 ovarian.
Experiment in all cases: growth of human tumour cells (NCI), 48 h

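A five-concentration, 48-hour dose response in 96-well plates underlies each endpoint, interpolated linearly between surrounding concentrations. The concentration for 50% growth inhibition is given as GI50. TGI is the concentration that stops growth completely.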 Bounds are passed on as bounds.

`CCOC(=O)N1CCN(CCCCCOc2ccccc2C2CCCCC2)CC1`: the GI50 was 13.5 µM in the experiment on A498 renal; 5 µM in the experiment on NCI-H460 lung; 3.09 µM with HCT-15 colon; 3.08 µM in the experiment on HT29 colon; 1.97 µM with K-562 leukemia; 8.29 µM in the experiment with OVCAR-3 ovarian. Besides, the GI50 in the experiment on HCT-116 colon is 2.16 µM; with RPMI-8226 leukemia, 1.61 µM. Moreover, the TGI with A498 renal was found to be 26.9 µM; in the experiment with NCI-H460 lung it was 17.7 µM; in the experiment with HCT-15 colon, 12.9 µM; with HT29 colon, 12 µM; with K-562 leukemia, 10.9 µM; with OVCAR-3 ovarian, 24.1 µM. The TGI was determined as 9.65 µM in the experiment with HCT-116 colon and 4.84 µM in the experiment on RPMI-8226 leukemia.
On to `CC1c2ccccc2N=C2SC(=S)N3CCN=C3N21` (stereo not drawn), for which the GI50 in the experiment on RXF 393 renal, in the experiment with NCI-H460 lung, with HCT-15 colon, with HT29 colon, in the experiment with K-562 leukemia and with OVCAR-3 ovarian was more than 100 µM each time. In addition, the GI50 with HCT-116 colon, in the experiment with RPMI-8226 leukemia and in the experiment with OVCAR-5 ovarian was more than 100 µM each time. Also, the TGI with RXF 393 renal, with NCI-H460 lung, in the experiment on HCT-15 colon, in the experiment on HT29 colon, with K-562 leukemia and in the experiment on OVCAR-3 ovarian was more than 100 µM in each case. Besides, the TGI with HCT-116 colon, in the experiment with RPMI-8226 leukemia and with OVCAR-5 ovarian was more than 100 µM in each case.
Take `COc1cc(CNc2nc3ccc(C(F)(F)F)cc3nc2-c2ccccc2)cc(OC)c1OC`: the TGI in the experiment on A498 renal, in the experiment on NCI-H460 lung, in the experiment with HCT-15 colon, in the experiment on HT29 colon, with K-562 leukemia and in the experiment on OVCAR-3 ovarian was more than 100 µM throughout. The TGI in the experiment with HCT-116 colon, with RPMI-8226 leukemia and in the experiment on OVCAR-5 ovarian was more than 100 µM each time.
`Clc1ccc2c(c1)N(c1ncnc3ccc(-c4cnc5[nH]ncc5c4)cc13)CC2`: the GI50 in the experiment on RXF 393 renal is 0.229 µM; in the experiment on NCI-H460 lung, 0.463 µM; with HCT-15 colon, 0.392 µM; in the experiment with HT29 colon, 0.344 µM; in the experiment with OVCAR-3 ovarian, 0.471 µM; with HCT-116 colon it was 1.15 µM. Besides, the GI50 in the experiment on RPMI-8226 leukemia was 0.759 µM; in the experiment on OVCAR-5 ovarian it was 0.396 µM. The TGI was 0.97 µM in the experiment on RXF 393 renal; more than 100 µM in the experiment on NCI-H460 lung; more than 100 µM in the experiment on HCT-15 colon; more than 100 µM in the experiment with HT29 colon; more than 100 µM in the experiment on OVCAR-3 ovarian; more than 100 µM with HCT-116 colon. Also, the TGI in the experiment on RPMI-8226 leukemia and in the experiment on OVCAR-5 ovarian was more than 100 µM each time.
On to `Cc1ccc(C)c(N2C(=O)C(=O)C(c3nc4ccccc4s3)C(=Nc3cccc4c(=O)[nH][nH]c(=O)c34)C2=O)c1` (stereo not drawn), for which the TGI in the experiment on A498 renal, in the experiment on NCI-H460 lung, with HCT-15 colon, in the experiment on HT29 colon, with K-562 leukemia and in the experiment on OVCAR-3 ovarian was more than 100 µM in each case. For the same compound, the TGI in the experiment with HCT-116 colon, in the experiment with RPMI-8226 leukemia and in the experiment with OVCAR-5 ovarian was more than 100 µM in each case.
For the compound `CC1(O)CCn2c(=O)c3cc4ccccc4cc3c(=O)n2C1O` (stereo not drawn), the TGI in the experiment with RXF 393 renal, in the experiment on NCI-H460 lung, with HCT-15 colon, with HT29 colon, in the experiment with K-562 leukemia and with OVCAR-3 ovarian was more than 100 µM each time. In addition, the TGI in the experiment on HCT-116 colon, in the experiment with RPMI-8226 leukemia and with OVCAR-5 ovarian was more than 100 µM throughout.
Turning to `CC(C)[O-].CC(C)[O-].O=c1cccccc1[O-].O=c1cccccc1[O-].[Ti+4]`, the TGI in the experiment with HCT-15 colon, in the experiment with K-562 leukemia, with OVCAR-3 ovarian, in the experiment on HCT-116 colon, with RPMI-8226 leukemia and in the experiment with OVCAR-5 ovarian was more than 100 µM each time.
Consider `O=c1[nH]c2cc([N+](=O)[O-])ccc2nc1/C(=N\Nc1ccccc1)C(O)c1ccc2c(c1)OCO2` (stereo not drawn), for which the TGI is more than 100 µM in the experiment on RXF 393 renal; more than 100 µM with NCI-H460 lung; 58.2 µM with HCT-15 colon; more than 100 µM in the experiment with HT29 colon; more than 100 µM with K-562 leukemia; more than 100 µM with OVCAR-3 ovarian. In addition, the TGI in the experiment on HCT-116 colon and in the experiment on RPMI-8226 leukemia was more than 100 µM each time.
Turning to `N.N.N.N.N.O=S(=O)([O-])S(=O)(=O)[O-].[Co+3]`, the GI50 in the experiment with A498 renal, with NCI-H460 lung, with HCT-15 colon, with HT29 colon, in the experiment on K-562 leukemia and in the experiment on OVCAR-3 ovarian was more than 100 µM throughout. Also, the GI50 in the experiment on HCT-116 colon, in the experiment with RPMI-8226 leukemia and in the experiment with OVCAR-5 ovarian was more than 100 µM in each case. The TGI in the experiment on A498 renal, with NCI-H460 lung, in the experiment with HCT-15 colon, in the experiment on HT29 colon, with K-562 leukemia and in the experiment on OVCAR-3 ovarian was more than 100 µM in each case. The TGI in the experiment on HCT-116 colon, with RPMI-8226 leukemia and in the experiment with OVCAR-5 ovarian was more than 100 µM throughout.
Take `C=CC1=C(C)C2=NC1=CC1=NC(=CC3=C(C)C4=C(O)[C@H](C(=O)OC)C(=C5NC(=C2)[C@@H](C)[C@@H]5CCC(=O)O)C4=N3)C(CC)=C1C`: the TGI in the experiment on RXF 393 renal is 9.1 µM; with NCI-H460 lung it was 13.8 µM; in the experiment on HCT-15 colon, 9.72 µM; with K-562 leukemia it was 6.24 µM; in the experiment with HCT-116 colon, more than 59 µM; with OVCAR-5 ovarian, more than 23.7 µM.
On to `C/C1=C\CC[C@@](C)(O)[C@@H]2C[C@H](CC/C(C)=C/CC1)C1(CC1)C(=O)O2`, for which the GI50 with RXF 393 renal is more than 100 µM; in the experiment with NCI-H460 lung it was 51.5 µM; in the experiment on HCT-15 colon, 30.2 µM; with HT29 colon it was 31.4 µM; in the experiment with K-562 leukemia it was 13.6 µM; in the experiment with OVCAR-3 ovarian, 22 µM. Also, the GI50 is 24.2 µM with HCT-116 colon, 20.3 µM in the experiment with RPMI-8226 leukemia and 54.9 µM in the experiment with OVCAR-5 ovarian. The TGI in the experiment with RXF 393 renal is more than 100 µM; in the experiment with NCI-H460 lung, more than 100 µM; with HCT-15 colon, more than 100 µM; in the experiment on HT29 colon, more than 100 µM; in the experiment with K-562 leukemia, 46.6 µM; in the experiment with OVCAR-3 ovarian, 47.4 µM. In addition, the TGI was 54.1 µM in the experiment on HCT-116 colon, 46.4 µM in the experiment on RPMI-8226 leukemia and more than 100 µM in the experiment on OVCAR-5 ovarian.
